Experimental data: ChEMBL document CHEMBL1156829 (Proc Natl Acad Sci U S A, 2008)

Columns and labels:
Plasmodium falciparum [1] = assay: NOVARTIS: Inhibition of Plasmodium falciparum W2 (drug-resistant) proliferation in erythrocyte-based infection assay; type: functional, organism-based; details: Plasmodium falciparum, W2; read-out: EC50
Plasmodium falciparum [2] = assay: NOVARTIS: Inhibition of Plasmodium falciparum 3D7 (drug-susceptible) proliferation in erythrocyte-based infection assay; type: functional, organism-based; details: Plasmodium falciparum, 3D7
[3] = NOVARTIS: Cytotoxicity against human hepatocellular carcinoma cell line (Huh7); type: toxicity, cell-based, Huh-7; details: Huh7 cells (hepatocellular carcinoma cell line)

| SMILES | EC50 (Plasmodium falciparum [1]) [µM] | EC50 (Plasmodium falciparum [2]) [µM] | CC50 [3] [µM] |
| --- | --- | --- | --- |
| Nc1nc(N)c2c(Oc3ccccc3)cccc2n1 | 0.0267 | 0.448 | > 10 |
| CCN(CC)S(=O)(=O)c1ccc(C(=O)NCc2nnc(SCC(=O)N3CCc4ccccc43)n2-c2ccccc2OC)cc1 | 0.0267 | > 1.25 | > 10 |
| OCC(O)COc1cccc2ccccc12 (configuration not stated) | < 0.0297 | > 1.05 | > 11.2 |
| COc1cccc(C(=O)NCc2nnc(S)n2-c2ccc(Cl)c(Cl)c2)c1 | 0.273 | 0.275 | > 100 |
| O=C1CSC(=Nc2ccc(F)c(Cl)c2)N1c1ccc(F)c(Cl)c1 | 0.0267 | > 1.25 | > 10 |
| O=C(CN1CCC(NC(=O)c2cccc(F)c2)CC1)NC1CC1 | 0.0267 | > 1.25 | > 10 |
| CO[C@H]1C[C@H](C)Cc2cc(O)cc(c2)NC(=O)C(C)=CCC[C@H](OC)[C@@H](OC(N)=O)C(C)=CC(C)[C@H]1O (some centres not stated) | 0.0267 | > 1.25 | > 10 |
| O=C(CCn1c(=S)oc2ccccc21)N1CCN(c2ccccc2)CC1 | 0.0267 | > 1.25 | > 10 |
| CCCCN(CCCC)CC(O)c1cc(-c2ccc(Cl)cc2)nc2cc(Cl)ccc12 (configuration not stated) | 0.0326 | 0.189 | > 12.4 |
| O=C(Nc1ccccc1)c1ccccc1OCC(O)Cn1c2ccccc2c2ccccc21 (configuration not stated) | 0.267 | 0.282 | > 100 |
| CC1CCCCN1CCCNc1ncc(C(=O)NCC2CCCO2)c(NCCc2ccccc2)n1 (configuration not stated) | 0.0267 | 0.918 | > 10 |
| CC(C)CNC(=O)c1cnc(NCCCN)nc1NC1CCCC1 | 0.0267 | 0.635 | > 10 |
| O=C(CSc1nc(-c2ccccc2Cl)ns1)Nc1ccc2c(c1)OCCO2 | 0.273 | 0.593 | > 100 |
| CCN(CC)c1ccc(C=NNC(=O)c2ccc(Nc3nc(-c4ccccc4)cs3)cc2)c(O)c1 | 0.0548 | 0.151 | 20.1 |
| CC(C)(C)CC(C)(C)c1ccc(O)c(CN2CCN(CCC#N)CC2)c1 | 0.272 | 1.29 | > 100 |
| CCn1c(CNc2ccc(Cl)cc2)nnc1SCC(=O)Nc1cccc(C)c1C | 0.0267 | > 1.25 | > 10 |
| C=CCNC(=O)c1ccc2c(c1)N=C(CC(C)c1ccccc1)N(CCCN1CCCC1=O)C2 (configuration not stated) | 0.0267 | > 1.25 | > 10 |
| CCCCCc1nnc(NC(=O)c2ccc(-c3ccc(OC)cc3)cc2)s1 | 0.0267 | 0.457 | > 10 |
| O=C1Nc2ccc(Br)cc2C12NCCc1c2[nH]c2ccccc12 (configuration not stated) | 0.111 | 0.198 | 42.2 |
| CCCn1c(SCC(=O)N2c3ccccc3CC2C)nc2c1c(=O)n(C)c(=O)n2C (configuration not stated) | < 0.0271 | > 1.25 | > 10 |
| N=C(NN=Cc1ccc([N+](=O)[O-])cc1)NN=Cc1ccc([N+](=O)[O-])cc1 | 0.271 | 0.28 | > 100 |
| FC(F)(F)c1cccc(NC(=S)N2CCSC2c2ccc(Br)cc2)c1 (configuration not stated) | 0.117 | 0.217 | 43.3 |
| Cc1ccccc1OCc1nnc(SCC(=O)Nc2ccc([N+](=O)[O-])cc2)n1C | 0.0267 | > 1.25 | > 10 |
| CCn1c(SCC(=O)Nc2cccc(C)c2)nnc1-c1ccccc1 | 0.0267 | > 1.25 | > 10 |
| CCN(CC)C(=O)c1cn(C2CCN(Cc3ccco3)CC2)nn1 | 0.0267 | > 1.25 | > 10 |
| COc1ccc(-c2nc3ccccc3n2C2CCN(Cc3ccc(C)o3)CC2)cc1OC | 0.0267 | > 1.25 | > 10 |
| CC(C)CC1=Nc2cc(C(=O)NCc3ccccc3)ccc2CN1Cc1cccnc1 | 0.0267 | > 1.25 | > 10 |

| SMILES | EC50 (Plasmodium falciparum [1]) [µM] | EC50 (Plasmodium falciparum [2]) [µM] | CC50 [3] [µM] |
| --- | --- | --- | --- |
| CCOc1cccc(C2=Nc3cc(C(=O)NC(C)C)ccc3CN2CC2CCCCC2)c1 | 0.0267 | > 1.25 | > 10 |
| Cn1c(=NC(=O)c2ccc(S(=O)(=O)N3CCCCC3)cc2)sc2cc(Cl)ccc21 | 0.0267 | > 1.25 | > 10 |
| CCCCCCN(C(=O)CCc1ccccc1)C(CC)c1nc2ccccc2c(=O)n1-c1ccc(Cl)cc1 (configuration not stated) | 0.0267 | 1.16 | > 10 |
| CCOc1ccc(C=C(C#N)c2nc3ccccc3[nH]2)cc1OC | 0.263 | 0.516 | > 100 |
| COc1cccc(C(=O)NC(c2ccc(Cl)cc2)c2cc(Cl)c3cccnc3c2O)c1 (configuration not stated) | 0.268 | 2.31 | > 100 |
| CCC(CC)CN1CCC(O)(c2ccc3oc(C(=O)Nc4ccc5c(c4)OCO5)cc3c2)CC1 | 0.268 | 0.246 | > 100 |
| O=C(ON(C(=O)c1ccc(F)cc1)C1C2CC3CC(C2)CC1C3)c1ccc(F)cc1 (configuration not stated) | 0.0267 | > 1.25 | > 10 |
| CCN(CC)Cc1cc2ccc(C)cc2n(CC(=O)OC)c1=O | 0.0267 | > 1.25 | > 10 |
| O=C(NCC1CCCO1)c1cnc(NCCCn2ccnc2)nc1NCCc1ccccc1 (configuration not stated) | 0.0267 | 1.01 | > 10 |
| CC(=O)C(=NNc1cc(C(F)(F)F)cc(C(F)(F)F)c1)C(C)=O | 0.0267 | > 1.25 | > 10 |
| Cc1ccc(Cn2c(N3CCC(C(=O)NCc4cccs4)CC3)nc3ccccc32)cc1 | 0.271 | 0.529 | > 100 |
| O=[N+]([O-])c1ccc(-n2ncc(-c3nc(-c4ccc(Cl)cc4)no3)c2C(F)(F)F)cc1 | 0.0267 | > 1.21 | > 10 |
| O=C(CS(=O)(=O)c1ccc(C(F)(F)F)cn1)NNS(=O)(=O)c1ccc(Cl)cc1 | 0.0267 | > 1.34 | > 10 |
| CN(C)C=Nc1nn(C)cc1C(=O)Nc1ccc(F)c(Cl)c1 | 0.264 | > 7.01 | > 100 |
| Cc1ccccc1CN1CCN(C/C=C/c2ccccc2)CCC1=O | 0.0267 | > 1.25 | > 10 |
| CCCCCCCCC(=O)Nc1c(C)cccc1C | 0.0267 | > 1.25 | > 10 |
| CCOC(=O)C1=C(c2ccccc2)N=c2sc(=Cc3ccccc3O)c(=O)n2C1c1c(OC)ccc2ccccc12 (configuration not stated) | 0.271 | 2.32 | > 100 |
| CCC(c1nc2ccccc2c(=O)n1-c1ccc(Cl)cc1)N(Cc1ccccc1)C(=O)Nc1c(C(C)C)cccc1C(C)C (configuration not stated) | 0.0267 | > 1.42 | > 10 |
| CCOc1c(Br)cc(C2C(C(=O)OC)=CN(C)C=C2C(=O)OC)cc1OC | 0.263 | 0.292 | > 100 |
| COc1ccc(Cl)cc1NC(=O)C1c2ccccc2C(=O)N(CC(C)C)C1c1cccs1 (configuration not stated) | 0.272 | 0.837 | > 100 |
| O=C(Nc1cccc(OC(=O)c2ccc([N+](=O)[O-])cc2)c1)c1ccc([N+](=O)[O-])cc1 | 0.27 | > 12.5 | > 100 |
| CC(C)(C)OCCN(CC(O)CN(Cc1ccccc1)C(=O)NC(c1ccccc1)c1ccccc1)S(=O)(=O)c1ccccc1 (configuration not stated) | < 0.0264 | 1.1 | > 10 |
| CCN(CC)C(=O)c1cn(C2CCN(C(=O)CCc3cccc(OC)c3)CC2)nn1 | 0.0267 | > 1.25 | > 10 |
| CC(=O)N1c2ccccc2NC2=C(C(=O)CCC2)C1c1ccc([N+](=O)[O-])cc1 (configuration not stated) | 0.0267 | > 1.25 | > 10 |
| CCn1c(CSc2nc(C)cc(C)n2)nnc1SCC(N)=O | 0.0267 | > 1.25 | > 10 |
| CCCCN(CCCC)CCCNc1ncnc2c1[nH]c1ccc(Cl)cc12 | 0.162 | 0.231 | 61.8 |
| CCCCNCCN1CCN(c2ccc(OC)cc2)C[C@@H]1c1ccccc1 | 0.0267 | > 1.28 | > 10 |
